What was measured:
CYP2D6 = molecular target: T1, CYP2D6 (Homo sapiens, UniProt P10635); assay: CYP inhibition in human liver microsomes, CYP2D6; format: in vitro ADME; conditions: probe dextromethorphan, substrate dextromethorphan, read-out: CYP2D6 Inh %
T1 construct: incubated with human liver microsomes; tissue Eurofins ITEMG232; host or cells: human liver microsomes
Experimental: (§1) The following substrates were used: CYP1A phenacetin, CYP2B6 bupropion, CYP2C8 paclitaxel and amodiaquine, CYP2C9 diclofenac, CYP2C19 omeprazole, CYP2D6 dextromethorphan, CYP3A midazolam and testosterone. At the end of the incubation, the formation of metabolite was monitored by HPLC-MS/MS as the peak area response.

CYP2C8 = molecular target: T2, CYP2C8 (Homo sapiens, UniProt P10632); assay: CYP inhibition in human liver microsomes, CYP2C8; format: in vitro ADME; conditions: probe paclitaxel and amodiaquine, substrate paclitaxel and amodiaquine, read-out: CYP2C8 Inh %
T2 construct: incubated with human liver microsomes; tissue Eurofins ITEMG232; host or cells: human liver microsomes
T2 sequence (P10632 1-490): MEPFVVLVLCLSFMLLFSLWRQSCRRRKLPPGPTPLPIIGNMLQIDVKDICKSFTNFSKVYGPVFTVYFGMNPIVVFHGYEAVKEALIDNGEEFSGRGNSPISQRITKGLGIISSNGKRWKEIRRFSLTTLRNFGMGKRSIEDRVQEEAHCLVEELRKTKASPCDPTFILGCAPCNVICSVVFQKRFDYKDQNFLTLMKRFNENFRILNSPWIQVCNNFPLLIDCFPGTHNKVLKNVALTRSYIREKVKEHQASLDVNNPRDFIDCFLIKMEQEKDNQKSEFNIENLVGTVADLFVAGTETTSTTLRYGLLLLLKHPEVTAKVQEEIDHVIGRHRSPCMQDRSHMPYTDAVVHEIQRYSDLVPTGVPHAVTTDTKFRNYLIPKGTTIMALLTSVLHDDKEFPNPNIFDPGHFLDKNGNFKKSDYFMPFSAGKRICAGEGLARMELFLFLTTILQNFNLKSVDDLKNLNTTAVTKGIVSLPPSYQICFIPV
Experimental: as §1

CYP3A4&5 = assay: CYP inhibition in human liver microsomes, CYP3A4&5 (testosterone); format: in vitro ADME; conditions: probe testosterone, substrate testosterone, read-out: CYP3A4&5 testosterone Inh %
Experimental: as §1

CYP2C19 = molecular target: T3, CYP2C19 (Homo sapiens, UniProt P33261); assay: CYP inhibition in human liver microsomes, CYP2C19; format: in vitro ADME; conditions: probe omeprazole, substrate omeprazole, read-out: CYP2C19 Inh %
T3 construct: incubated with human liver microsomes; tissue Eurofins ITEMG232; host or cells: human liver microsomes
T3 sequence (P33261 whole entry): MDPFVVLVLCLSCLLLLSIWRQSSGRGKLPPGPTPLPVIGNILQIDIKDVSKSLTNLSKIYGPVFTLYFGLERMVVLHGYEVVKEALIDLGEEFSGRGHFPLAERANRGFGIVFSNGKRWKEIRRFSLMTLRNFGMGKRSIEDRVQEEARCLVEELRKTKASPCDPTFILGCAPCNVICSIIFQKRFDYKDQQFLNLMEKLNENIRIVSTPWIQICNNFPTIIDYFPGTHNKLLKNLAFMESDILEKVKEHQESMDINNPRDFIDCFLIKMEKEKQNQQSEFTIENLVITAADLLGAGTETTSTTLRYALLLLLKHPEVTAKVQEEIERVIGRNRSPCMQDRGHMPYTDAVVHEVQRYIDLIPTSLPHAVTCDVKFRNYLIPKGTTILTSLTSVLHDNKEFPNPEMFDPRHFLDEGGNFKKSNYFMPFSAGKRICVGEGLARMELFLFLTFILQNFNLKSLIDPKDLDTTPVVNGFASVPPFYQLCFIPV
Experimental: as §1

CYP2B6 = molecular target: T4, CYP2B6 (Homo sapiens, UniProt P20813); assay: CYP inhibition in human liver microsomes, CYP2B6; format: in vitro ADME; conditions: probe bupropion, substrate bupropion, read-out: CYP2B6 Inh %
T4 construct: incubated with human liver microsomes; tissue Eurofins ITEMG232; host or cells: human liver microsomes
T4 sequence (P20813 1-491): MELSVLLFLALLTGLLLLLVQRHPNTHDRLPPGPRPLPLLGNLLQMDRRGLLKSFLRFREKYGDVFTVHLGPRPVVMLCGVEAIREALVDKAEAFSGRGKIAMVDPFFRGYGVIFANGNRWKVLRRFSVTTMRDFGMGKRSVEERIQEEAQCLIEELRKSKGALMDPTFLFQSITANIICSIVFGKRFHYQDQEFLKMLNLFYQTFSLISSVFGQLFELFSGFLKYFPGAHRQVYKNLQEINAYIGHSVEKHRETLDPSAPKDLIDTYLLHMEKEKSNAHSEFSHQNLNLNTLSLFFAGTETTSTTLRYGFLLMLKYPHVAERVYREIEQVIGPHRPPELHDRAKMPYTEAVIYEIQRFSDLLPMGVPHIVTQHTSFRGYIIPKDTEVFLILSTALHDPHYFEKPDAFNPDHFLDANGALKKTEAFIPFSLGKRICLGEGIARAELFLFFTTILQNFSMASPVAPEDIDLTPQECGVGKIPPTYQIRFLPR
Experimental: as §1

CYP3A4 = CYP3A4 (Homo sapiens, UniProt P08684); assay: CYP inhibition in human liver microsomes, CYP3A4 (midazolam); format: in vitro ADME; set-up: incubated with human liver microsomes; tissue Eurofins ITEMG232; host or cells: human liver microsomes; conditions: probe midazolam, substrate midazolam, read-out: CYP3A4 midazolam Inh %
Chain of CYP3A4 (P08684 whole entry): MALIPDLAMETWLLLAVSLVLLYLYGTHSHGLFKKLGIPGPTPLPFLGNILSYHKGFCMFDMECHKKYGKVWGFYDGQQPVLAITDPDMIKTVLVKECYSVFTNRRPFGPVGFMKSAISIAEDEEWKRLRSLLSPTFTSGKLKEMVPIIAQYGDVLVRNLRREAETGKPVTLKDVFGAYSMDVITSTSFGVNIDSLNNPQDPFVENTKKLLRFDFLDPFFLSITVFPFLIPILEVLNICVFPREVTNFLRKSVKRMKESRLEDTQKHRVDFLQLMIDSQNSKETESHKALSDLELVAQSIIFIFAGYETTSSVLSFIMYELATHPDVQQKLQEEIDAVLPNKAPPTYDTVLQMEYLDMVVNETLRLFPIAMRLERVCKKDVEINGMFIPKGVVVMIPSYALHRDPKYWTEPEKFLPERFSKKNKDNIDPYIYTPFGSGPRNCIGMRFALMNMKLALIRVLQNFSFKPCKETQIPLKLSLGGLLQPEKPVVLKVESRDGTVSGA
Experimental: as §1

[1] = molecular target: T5, human recombinant AT1 receptor (Homo sapiens, UniProt P30556); assay: Binding to AT1 receptor, radiometric scintillation assay (Eurofins); conditions: ligand 125I(sar1,Ile8)-AT-II, tested at 1 and 10 μM
T5 construct: purchased Eurofins ITEM24
T5 sequence (P30556 1-359): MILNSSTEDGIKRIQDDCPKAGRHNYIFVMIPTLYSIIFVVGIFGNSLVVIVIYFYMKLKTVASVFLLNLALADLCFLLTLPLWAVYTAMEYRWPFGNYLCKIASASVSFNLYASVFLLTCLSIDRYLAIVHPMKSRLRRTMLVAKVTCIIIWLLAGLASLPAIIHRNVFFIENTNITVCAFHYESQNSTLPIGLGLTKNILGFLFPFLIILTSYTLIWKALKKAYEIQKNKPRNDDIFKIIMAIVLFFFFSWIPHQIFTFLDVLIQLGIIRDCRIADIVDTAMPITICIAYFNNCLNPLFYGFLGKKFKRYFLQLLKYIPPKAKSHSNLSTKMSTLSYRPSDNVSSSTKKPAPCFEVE
Experimental: (§2) Compounds were evaluated for binding to the human recombinant AT2 and AT1 receptor according to Eurofins protocol ITEM26 and ITEM24 using a radiometric scintillation assay.

[2] = molecular target: T6, human recombinant AT2 receptor (Homo sapiens, UniProt P50052); assay: Binding to AT2 receptor, radiometric scintillation assay (Eurofins); conditions: ligand 125I CGP 42112A, tested at 1, 10, 100 and 1000 nM
T6 construct: purchased Eurofins ITEM26
T6 sequence (P50052 1-363): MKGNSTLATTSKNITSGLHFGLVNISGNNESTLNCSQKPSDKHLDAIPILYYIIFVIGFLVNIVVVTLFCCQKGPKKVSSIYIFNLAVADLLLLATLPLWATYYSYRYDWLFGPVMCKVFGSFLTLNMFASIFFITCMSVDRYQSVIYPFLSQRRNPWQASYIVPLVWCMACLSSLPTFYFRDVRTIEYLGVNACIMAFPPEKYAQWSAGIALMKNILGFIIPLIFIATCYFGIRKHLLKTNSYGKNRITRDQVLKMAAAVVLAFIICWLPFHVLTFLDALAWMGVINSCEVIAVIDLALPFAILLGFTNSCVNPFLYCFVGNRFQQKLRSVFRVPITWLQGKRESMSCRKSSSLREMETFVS
Experimental: as §2

CYP2C9 = CYP2C9 (Homo sapiens, UniProt P11712); assay: CYP inhibition in human liver microsomes, CYP2C9; format: in vitro ADME; set-up: incubated with human liver microsomes; tissue Eurofins ITEMG232; host or cells: human liver microsomes; conditions: probe diclofenac, substrate diclofenac, read-out: CYP2C9 Inh %
Chain of CYP2C9 (P11712 whole entry): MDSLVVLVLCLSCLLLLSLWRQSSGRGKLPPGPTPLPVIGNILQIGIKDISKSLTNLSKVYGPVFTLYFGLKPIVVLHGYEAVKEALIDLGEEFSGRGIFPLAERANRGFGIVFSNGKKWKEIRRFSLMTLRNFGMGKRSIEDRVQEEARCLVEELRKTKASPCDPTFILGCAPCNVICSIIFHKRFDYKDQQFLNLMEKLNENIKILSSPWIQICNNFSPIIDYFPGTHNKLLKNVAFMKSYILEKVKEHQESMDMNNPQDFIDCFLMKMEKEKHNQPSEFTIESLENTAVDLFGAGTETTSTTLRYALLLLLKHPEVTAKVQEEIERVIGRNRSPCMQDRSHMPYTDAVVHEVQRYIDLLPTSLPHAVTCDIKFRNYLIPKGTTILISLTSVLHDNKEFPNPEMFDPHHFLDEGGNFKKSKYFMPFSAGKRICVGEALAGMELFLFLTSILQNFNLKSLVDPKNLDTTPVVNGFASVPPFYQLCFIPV
Experimental: as §1

T1 sequence (P10635 whole entry): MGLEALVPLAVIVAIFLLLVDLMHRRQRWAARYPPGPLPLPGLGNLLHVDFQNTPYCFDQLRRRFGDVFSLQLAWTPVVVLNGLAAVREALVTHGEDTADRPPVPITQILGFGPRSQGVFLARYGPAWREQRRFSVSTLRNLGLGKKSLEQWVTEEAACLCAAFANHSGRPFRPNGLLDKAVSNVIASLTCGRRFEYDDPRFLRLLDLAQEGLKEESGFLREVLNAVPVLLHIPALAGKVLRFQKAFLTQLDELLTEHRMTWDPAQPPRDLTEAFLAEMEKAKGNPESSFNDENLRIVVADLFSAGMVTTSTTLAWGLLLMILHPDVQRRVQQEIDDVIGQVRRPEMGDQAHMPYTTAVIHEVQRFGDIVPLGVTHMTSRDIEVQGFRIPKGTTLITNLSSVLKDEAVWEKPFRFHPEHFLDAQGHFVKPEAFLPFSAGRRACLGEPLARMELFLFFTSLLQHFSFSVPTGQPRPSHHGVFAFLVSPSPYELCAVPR

| SMILES | inhibition at 10 µM (CYP2D6) [%] | inhibition at 10 µM (CYP2C8) [%] | inhibition at 10 µM (CYP3A4&5) [%] | inhibition at 10 µM (CYP2C19) [%] | inhibition at 10 µM (CYP2B6) [%] | inhibition at 10 µM (CYP3A4) [%] | IC50 [1] [nM] | IC50 [2] [nM] | inhibition at 10 µM (CYP2C9) [%] |
| --- | --- | --- | --- | --- | --- | --- | --- | --- | --- |
| Cc1nccn1Cc1ccc(-c2cc(CC(C)C)sc2S(=O)(=O)NC(=O)NCCCC(F)(F)F)cc1 [Example 5, 3-(5-isobutyl-3-{p-[(2-Methyl-1H-imidazol-1-yl)methyl]phenyl}-2-thienylsulfonyl)-1-(4,4,4-trifluorobutyl)-urea] | 13.2 | 49.3 | 14.7 | 50.4 | 9.6 | 26.7 | > 10000 | 14.8 | 27.9 |
| CCc1nccn1Cc1ccc(-c2cc(CC(C)C)sc2S(=O)(=O)NC(=O)NCCOC)cc1 [Example 7, 3-(3-{p-[(2-Ethyl-1H-imidazol-1-yl)methyl]phenyl}-5-isobutyl-2-thienylsulfonyl)-1-(2-methoxy-ethyl)urea] | 3.2 | 38.6 | 3 | 37.9 | -0.4 | 10.1 | > 10000 | 15.2 | 10.2 |
| Cc1nccn1Cc1ccc(-c2cc(CC(C)C)sc2S(=O)(=O)NC(=O)NCCC(F)(F)F)cc1F [Example 14, 3-(3-{3-Fluoro-4-[(2-methyl-1H-imidazol-1-yl)methyl]phenyl}-5-isobutyl-2-thienylsulfonyl)-1-(3,3,3-trifluoropropyl)urea] | 30 | 78 | 33 | 62 | 43 | 30 | 25000 | 3.3 | 65 |
| CCCCNC(=O)NS(=O)(=O)c1sc(CC(C)C)cc1-c1ccc(Cn2ccnc2C)cc1 [Example 4, 1-Butyl-3-(5-isobutyl-3-{p-[(2-methyl-1H-imidazol-1-yl)methyl]phenyl}-2-thienylsulfonyl)-urea] | 7.7 | 47.2 | 8.2 | 37.5 | 12.7 | 17.1 | > 10000 | 10.5 | 31.3 |
| Cc1nccn1Cc1ccc(-c2cc(CC(C)C)sc2S(=O)(=O)NC(=O)NCc2ccccc2)cc1 [Example 1, 1-benzyl-3-[[5-isobutyl-3-[4-[(2-methylimidazol-1-yl)methyl]phenyl]-2-thienyl]sulfonyl]urea] | 14.3 | 40 | 21.4 | 59.1 | 19 | 41.3 | > 1000 | 4 | 49.7 |
| Cc1nccn1Cc1ccc(-c2cc(CC(C)C)sc2S(=O)(=O)NC(=O)NCc2ccccn2)cc1F [Example 13, 3-(3-{3-Fluoro-4-[(2-methyl-1H-imidazol-1-yl)methyl]phenyl}-5-isobutyl-2-thienylsulfonyl)-1-[(2-pyridyl)methyl]urea] | 12 | 77 | 9 | 40 | 3 | 80 | 26000 | 0.53 | 32 |
| Cc1nccn1Cc1ccc(-c2cc(CC(C)C)sc2S(=O)(=O)NC(=O)NCc2ccccn2)cc1 [Example 2, 3-(5-isobutyl-3-{p-[(2-Methyl-1H-imidazol-1-yl)methyl]phenyl}-2-thienylsulfonyl)-1-[(2-pyridyl)methyl]urea] | 8.6 | 52.8 | 0.3 | 35.4 | 8.2 | 22.1 | > 10000 | 5.5 | 30.4 |

Continued, values first:

| inhibition at 10 µM (CYP2D6) [%] | inhibition at 10 µM (CYP2C8) [%] | inhibition at 10 µM (CYP3A4&5) [%] | inhibition at 10 µM (CYP2C19) [%] | inhibition at 10 µM (CYP2B6) [%] | inhibition at 10 µM (CYP3A4) [%] | IC50 [1] [nM] | IC50 [2] [nM] | inhibition at 10 µM (CYP2C9) [%] | SMILES |
| --- | --- | --- | --- | --- | --- | --- | --- | --- | --- |
| 45 | 56 | 25 | 60 | 46 | 26 | 8000 | 0.63 | 71 | Cc1nccn1Cc1ccc(-c2cc(CC(C)C)sc2S(=O)(=O)NC(=O)NCc2cccs2)cc1F.O=C(O)C(F)(F)F [Example 35, 1-[(3-{3-fluoro-4-[(2-methyl-1H-imidazol-1-yl)methyl]phenyl}-5-(2-methylpropyl)thiophen-2-yl)sulfonyl]-3-[(thiophen-2-yl)methyl]urea trifluoroacetic acid] |
| 40 | 64 | 60 | 80 | 57 | 74 | 21000 | 5.2 | 75 | Cc1nccn1Cc1ccc(-c2cc(CC(C)C)sc2S(=O)(=O)NC(=O)NCc2ccc(F)c(F)c2)cc1F.O=C(O)C(F)(F)F [Example 34, 1-[(3,4-difluorophenyl)methyl]-3-[(3-{3-fluoro-4-[(2-methyl-1H-imidazol-1-yl)methyl]phenyl}-5-(2-methylpropyl)thiophen-2-yl)sulfonyl]urea trifluoroacetic acid] |
| 16 | 56 | 15 | 56 | 23 | 16 | 30000 | 2.5 | 50 | Cc1nccn1Cc1ccc(-c2cc(CC(C)C)sc2S(=O)(=O)NC(=O)NC(C)c2ccccn2)cc1F (stereo not drawn) [Example 25, 3-(3-{3-Fluoro-4-[(2-methyl-1H-imidazol-1-yl)methyl]phenyl}-5-isobutyl-2-thienylsulfonyl)-1-[1-(2-pyridyl)ethyl]urea] |
